Measurements from US11225466B2, “Benzothiadiazepine compounds and their use as bile acid modulators” (Albireo AB, priority 2019, dated 2022).

How the values were obtained:
[1] = Bidirectional permeability assay (Caco-2 cells); format: in vitro ADME; conditions: human, Caco-2, pH 7.4, 120 minutes at 37° C., FaSSIF buffer; for Papp A→B at 120 min, 10 µM: absorptive direction (A2B); for Papp B→A at 120 min, 10 µM: secretory direction (B2A)
Excerpt: Bidirectional Permeability Assay (Caco-2 Cells)

Human LBAT = target: T1, Human LBAT (Homo sapiens, UniProt Q14973); assay: LBAT (h/m) assay: 3H-taurocholic acid uptake in human LBAT-overexpressing cells; format: cell-based; conditions: 0.3 μM 3H-taurocholic acid and 7.5 μM cold taurocholic acid, read-out: hLBAT IC50
T1 sequence (Q14973 1-349): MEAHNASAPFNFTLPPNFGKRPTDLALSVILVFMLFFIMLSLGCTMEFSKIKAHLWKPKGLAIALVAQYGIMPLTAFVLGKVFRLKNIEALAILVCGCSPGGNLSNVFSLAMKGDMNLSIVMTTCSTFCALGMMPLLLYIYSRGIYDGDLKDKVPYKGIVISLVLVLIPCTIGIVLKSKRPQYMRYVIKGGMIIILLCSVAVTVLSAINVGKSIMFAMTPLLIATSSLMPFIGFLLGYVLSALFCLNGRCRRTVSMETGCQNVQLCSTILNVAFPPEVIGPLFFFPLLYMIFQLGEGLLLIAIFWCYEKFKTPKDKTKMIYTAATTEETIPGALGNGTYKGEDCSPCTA
Experimental: LBAT (h/m) Assay Protocol
(§1) 20,000 cells (Human or Mouse LBAT-overexpressing cells) were seeded in 96-wells plate (Corning CLS3809) in 100 μL MEM-alpha medium (Gibco 12571-063) supplemented with 10% FBS (Gibco 10438026) containing Geneticin (Gibco 10131-027) (1 mg/mL) and incubated at 37° C. in 5% CO2 for 24 hours. After incubation, media was decanted from the wells and cells were washed two times with 300 μL of basal MEM-alpha medium (FBS-free). After decanting basal MEM-alpha medium each time, plates were tapped against paper towel to ensure maximum removal of residual media.
For human LBAT, incubation mix was prepared by adding test inhibitor dilutions (3-fold serial dilution in DMSO (Sigma D2650), 10 points) in MEM-alpha (without FBS) containing 0.3 μM 3H-taurocholic acid (ARC ART-1368) and 7.5 μM cold taurocholic acid (Sigma T4009) (maintaining 0.2% final DMSO concentration). […]
100 μL of MicroScint-20 (PerkinElmer 6013621) was added to the wells and kept overnight at room temperature before reading the plates in TopCount NXT™ Microplate Scintillation and Luminescence Counter from PerkinElmer under 3H Test protocol (set at 120 seconds reading time per well, with normal plate orientation). […]

Human IBAT = target: T2, Human IBAT (Homo sapiens, UniProt Q12908); assay: IBAT (h/m) assay: 3H-taurocholic acid uptake in human IBAT-overexpressing cells; format: cell-based; conditions: 0.25 μM 3H-taurocholic acid and 5 μM cold taurocholic acid, read-out: hIBAT IC50
T2 construct: expressed in transfected cells; kept under Puromycin selection
T2 sequence (Q12908 1-348): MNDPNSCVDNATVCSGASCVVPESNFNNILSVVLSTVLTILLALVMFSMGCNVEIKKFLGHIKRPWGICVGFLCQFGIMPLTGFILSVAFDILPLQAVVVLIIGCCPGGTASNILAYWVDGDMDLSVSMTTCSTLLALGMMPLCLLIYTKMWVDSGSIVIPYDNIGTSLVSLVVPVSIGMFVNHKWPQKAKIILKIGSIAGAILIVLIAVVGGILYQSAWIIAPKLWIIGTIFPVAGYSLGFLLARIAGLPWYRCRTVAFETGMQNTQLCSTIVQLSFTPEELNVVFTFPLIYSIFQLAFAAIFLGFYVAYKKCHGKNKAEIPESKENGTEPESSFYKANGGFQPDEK
Experimental: IBAT (h/m) Assay Protocol
as §1, with “10,000” for “20,000”, “IBAT-overexpressing” for “LBAT-overexpressing”, “200” for “100”, “Puromycin” for “Geneticin”, “A1113803) (10 μg/mL)” for “10131-027) (1 mg/mL)”, “48” for “24”
Test inhibitor dilutions (highest test concentration being 10 μM, 3-fold serial dilution, 10 points) prepared in DMSO (Sigma D2650) were added in incubation mix (maintaining 0.2% final DMSO concentration) containing 0.25 μM 3H-taurocholic acid (ARC ART-1368) and 5 μM of cold taurocholic acid (Sigma T4009). 50 μL of incubation mix containing test inhibitors was then added to the wells (in duplicate) and the plates were incubated for 20 minutes in a CO2 incubator at 37° C. After incubation, the reaction was stopped by keeping the plates on ice water mix for 2-3 minutes and then the incubation mix was aspirated completely from the wells. The wells were washed two times with 250 μL of chilled unlabeled 1 mM taurocholic acid dissolved in HEPES (Gibco 15630080)-buffered (10 mM) HBSS (Gibco 14175079) (pH 7.4). The plates were tapped against a paper towel after every wash to ensure maximum removal of blocking buffer.
100 μL of MicroScint-20 (PerkinElmer 6013621) was added to the wells and kept overnight at room temperature before reading the plates in TopCount NXT™ Microplate Scintillation and Luminescence Counter from PerkinElmer under 3H Test protocol (set at 120 seconds reading time per well).
All test compounds were provided in powder form at room temperature. 10 mM DMSO stocks of the test compounds were prepared, aliquoted and stored at −20° C. From the 10 mM DMSO stock of the compounds, a 3-fold serial dilution in DMSO was prepared to get a total of 10 dilutions of the test compounds. […]

Structure (SMILES): CCCC[C@@]1(CC)CN(c2ccccc2)c2cc(SC)c(OCC(=O)O)cc2S(=O)(=O)N1 (single isomer, unassigned) [Example 2]
- Papp A→B at 120 min, 10 µM [1]: 2.52 ×10⁻⁶ cm/s
- Papp B→A at 120 min, 10 µM [1]: 4 ×10⁻⁶ cm/s
- IC50 (Human LBAT): 3.98 µM
- IC50 (Human IBAT): 0.0057 µM

Structure (SMILES): CCCC[C@]1(CC)CN(c2ccccc2)c2cc(SC)c(OCC(=O)O)cc2S(=O)(=O)N1 (single isomer, unassigned) [Example 3]
- IC50 (Human LBAT): 5 µM
- IC50 (Human IBAT): 0.182 µM

Structure (SMILES): CCCCC1(CC)CN(c2ccccc2)c2cc(SC)c(OCC(=O)O)cc2S(=O)(=O)N1 (stereo not drawn) [Example 1, 2-((3-butyl-3-ethyl-7-(methylthio)-1,1-dioxido-5-phenyl-2,3,4,5-tetrahydrobenzo-1,2,5-thiadiazepin-8-yl)oxy)acetic Acid]
- Papp A→B at 120 min, 10 µM [1]: 1.1 ×10⁻⁶ cm/s
- Papp B→A at 120 min, 10 µM [1]: 2.9 ×10⁻⁶ cm/s
- IC50 (Human IBAT): 0.0088 µM
